For experiment [1], the target named is T1, BRD4 Bromodomain 1 (BRD4 BD1) (Homo sapiens, UniProt O60885).
T1 construct: 44-168 and BRD4 BD2
The experiment in a line: AlphaScreen binding assay, BRD4 BD1. As to conditions: His-tagged BRD4 BD1 50 nM, biotinylated H4 (1-21) K5/8/12/16 tetra-acetylated peptide 50 nM, compounds listed under IC50 range headings. How it is done: The binding of Example compounds to BRD4 Bromodomain 1 and BRD4 Bromodomain 2 was assessed using 384-well AlphaScreen assay technology. His-epitope tagged BRD4 BD144-168 and BRD4 BD2333-460 were cloned, expressed, and purified to homogeneity. BRD4 BD1 and BRD4 BD2 binding and inhibition was assessed by monitoring the engagement of biotinylated Histone H4 (1-21) K5/8/12/16 tetra-acetylated peptide with the targets using the AlphaScreen technology (PerkinElmer). Specifically, in a 384-well black or white flat bottom plate, BRD4 BD1 (50 nM final) or BRD4 BD2 (100 nM final) was combined with peptide (50 nM final for BD1 or 100 nM final for BD2) in 50 mM HEPES (pH 7.3), 100 mM NaCl, 0.1% (w/v) BSA, and 0.01% (w/v) Triton X-100 either in the presence of DMSO (final 1.25% DMSO) or compound dilution series in DMSO. Alpha streptavidin donor beads and Nickel-chelate acceptor beads were added to a final concentration of 10 μg/ml each. After a minimum of 1 hour equilibration, plates were read on a BMG PHERAstar FS multi-label reader (BMG LabTech). The half maximal inhibitory concentration (IC50) values were calculated using IDBS Activity Base software with a four parameter logistic curve fit by the equation y=A+((B−A)/(1+((C/x)^D))), wherein A denotes the bottom plateau of the curve, B denotes the top plateau of the curve, C denotes the x value at the middle of the curve, D denotes the slope factor, x denotes the original known x values, and y denotes the original known y values. Data was fitted using the Levenburg Marquardt algorithm.

In experiment [2] the test system is acute myelocytic leukemia (AML) cell line MV4-11. The experiment in a line: Oncology cell growth assay (3-day proliferation, CellTiter-Glo). As to conditions: Homo sapiens, MV4-11, 72 h, MV4-11 cells, 3000 cells/well, compounds listed under IC50 range headings, read-out: MV411 IC50 (gIC50, inhibition of proliferation). Type of experiment: cell-based. How it is done:
The impact of Example compounds on cancer cell proliferation was determined using the acute myelocytic leukemia (AML) cell line MV4-11 (ATCC) in a 3-day proliferation assay. MV4-11 cells were maintained in RPMI 1640 media supplemented with 10% FBS at 37° C. and an atmosphere of 5% CO2. For compound testing, compound dilutions series were prepared in DMSO via a 3-fold serial dilution from 2 mM to 0.001 mM in 384-well white flat bottom plates. The final compound concentrations in the wells were 10, 3.3, 1.1, 0.37, 0.12, 0.041, 0.013 and 0.0045 μM. MV4-11 cells were plated at a density of 3000 cells/well in final volume of 50 μl culture media and incubated for 72 hours. […] Luminescent signal from the CellTiter-Glo assay was read on an EnVision multilabel plate reader (PerkinElmer). Values for the concentration that inhibited cell growth by 50% (gIC50) between the DMSO control and background control (no cells) were determined using IDBS Activity Base software with a four parameter logistic curve fit by the equation y=A+((B−A)/(1+((C/x)^D))), wherein A denotes the bottom plateau of the curve, B denotes the top plateau of the curve, C denotes the x value at the middle of the curve, D denotes the slope factor, x denotes the original known x values, and y denotes the original known y values. Data was fitted using the Levenburg Marquardt algorithm.
A general note: Cellular ATP, detected with luciferase, serves as a proxy for viable cell number.

Regarding `C[C@H]1CCc2c(ccc(-c3cnn(C4CNC4)c3)c2Oc2cc(F)cc(F)c2)N1C(=O)C1CC1` [I-181, (S)-(6-(1-(azetidin-3-yl)-1H-pyrazol-4-yl)-5-(3,5-difluorophenoxy)-2-methyl-3,4-dihydroquinolin-1(2H)-yl)(cyclopropyl)methanone], the results for the IC50 in experiment [1] and in experiment [2] were 100 to 1000 nM and below 500 nM, respectively.
The like results for `COC(=O)N1c2ccc(-c3cnn(C4CCNCC4)c3)c(Oc3cc(F)cc(F)c3)c2CC[C@@H]1C` [I-182, (S)-methyl 5-(3,5-difluorophenoxy)-2-methyl-6-(1-(piperidin-4-yl)-1H-pyrazol-4-yl)-3,4-dihydroquinoline-1(2H)-carboxylate] were, in that order, 100 to 1000 nM and below 500 nM.
The like results for `C[C@H]1CCc2c(ccc(-c3cnn(C4CCNCC4)c3)c2Oc2cc(F)cc(F)c2)N1C(=O)C1CC1` [I-183, (S)-cyclopropyl(5-(3,5-difluorophenoxy)-2-methyl-6-(1-(piperidin-4-yl)-1H-pyrazol-4-yl)-3,4-dihydroquinolin-1(2H)-yl)methanone] were, in that order, 100 to 1000 nM and below 500 nM.
On the same counts, the results for `C[C@H]1CCc2c(ccc(-c3nnc(N)s3)c2Oc2ccccc2)N1C(=O)C1CC1` [I-184, (S)-(6-(5-amino-1,3,4-thiadiazol-2-yl)-2-methyl-5-phenoxy-3,4-dihydroquinolin-1(2H)-yl)(cyclopropyl)methanone] are 100 to 1000 nM and below 500 nM.
Consider `COC(=O)N1c2ccc(-c3cnn(C4CC5CNCC5C4)c3)c(Oc3ccc(F)cc3)c2CC[C@@H]1C` (stereo partly drawn) [I-186, (2S)-methyl 5-(4-fluorophenoxy)-2-methyl-6-(1-(octahydrocyclopenta[c]pyrrol-5-yl)-1H-pyrazol-4-yl)-3,4-dihydroquinoline-1(2H)-carboxylate], for which the results for the IC50 in experiment [1] and in experiment [2] were 100 to 1000 nM and below 500 nM, respectively.
For the compound `C[C@H]1CCc2c(ccc(-c3c[nH]nn3)c2Oc2ccccc2)N1C(=O)C1CC1` [I-187, (S)-cyclopropyl(2-methyl-5-phenoxy-6-(1H-1,2,3-triazol-4-yl)-3,4-dihydroquinolin-1(2H)-yl)methanone], the values for the IC50 in experiment [1] and in experiment [2] were 100 to 1000 nM and below 500 nM, respectively.
The like results for `COC(=O)N1c2ccc(-c3cnn(C4CNC4)c3)c(Oc3ccc(F)c(F)c3)c2CC[C@@H]1C` [I-192, (S)-methyl 6-(1-(azetidin-3-yl)-1H-pyrazol-4-yl)-5-(3,4-difluorophenoxy)-2-methyl-3,4-dihydroquinoline-1(2H)-carboxylate] were, in that order, 100 to 1000 nM and below 500 nM.
On the same counts, the results for `COC(=O)N1c2ccc(-c3cnn(C4CNC4)c3)c(Oc3ccccc3)c2CC[C@@H]1C` [I-193, (S)-methyl 6-(1-(azetidin-3-yl)-1H-pyrazol-4-yl)-2-methyl-5-phenoxy-3,4-dihydroquinoline-1(2H)-carboxylate] are 100 to 1000 nM and below 500 nM.
The like results for `COc1ccccc1Oc1c(-c2cnn(C3CCNCC3)c2)ccc2c1CC[C@H](C)N2C(=O)C1CC1` [I-194, (S)-cyclopropyl(5-(2-methoxyphenoxy)-2-methyl-6-(1-(piperidin-4-yl)-1H-pyrazol-4-yl)-3,4-dihydroquinolin-1(2H)-yl)methanone] were, in that order, 100 to 1000 nM and below 500 nM.
Turning to `COc1cccc(Oc2c(-c3cnn(C4CCNCC4)c3)ccc3c2CC[C@H](C)N3C(=O)C2CC2)c1` [I-195, (S)-cyclopropyl(5-(3-methoxyphenoxy)-2-methyl-6-(1-(piperidin-4-yl)-1H-pyrazol-4-yl)-3,4-dihydroquinolin-1(2H)-yl)methanone], the IC50 in experiment [1] was 100 to 1000 nM; in experiment [2] it was below 500 nM.
With `COc1ccc(Oc2c(-c3cnn(C4CCNCC4)c3)ccc3c2CC[C@H](C)N3C(=O)C2CC2)cc1` [I-196, (S)-cyclopropyl(5-(4-methoxyphenoxy)-2-methyl-6-(1-(piperidin-4-yl)-1H-pyrazol-4-yl)-3,4-dihydroquinolin-1(2H)-yl)methanone], the values for the IC50 in experiment [1] and in experiment [2] were 100 to 1000 nM and below 500 nM, respectively.
On the same counts, the results for `COC(=O)N1c2ccc(-c3cnn(C4CCNCC4)c3)c(Oc3ccccc3OC)c2CC[C@@H]1C` [I-197, (S)-methyl 5-(2-methoxyphenoxy)-2-methyl-6-(1-(piperidin-4-yl)-1H-pyrazol-4-yl)-3,4-dihydroquinoline-1(2H)-carboxylate] are 100 to 1000 nM and below 500 nM.
On the same counts, the results for `COC(=O)N1c2ccc(-c3cnn(C4CCNCC4)c3)c(Oc3cccc(OC)c3)c2CC[C@@H]1C` [I-198, (S)-methyl 5-(3-methoxyphenoxy)-2-methyl-6-(1-(piperidin-4-yl)-1H-pyrazol-4-yl)-3,4-dihydroquinoline-1(2H)-carboxylate] are 100 to 1000 nM and below 500 nM.
`COC(=O)N1c2ccc(-c3cnn(C4CCNCC4)c3)c(Oc3ccc(OC)cc3)c2CC[C@@H]1C` [I-199, (S)-methyl 5-(4-methoxyphenoxy)-2-methyl-6-(1-(piperidin-4-yl)-1H-pyrazol-4-yl)-3,4-dihydroquinoline-1(2H)-carboxylate]: the IC50 in experiment [1] is 100 to 1000 nM; in experiment [2] it was below 500 nM.
The like results for `C[C@H]1CCc2c(ccc(-c3cnn(C4CCNCC4)c3)c2Oc2cccc(C#N)c2)N1C(=O)C1CC1` [I-202, (S)-3-(1-(cyclopropanecarbonyl)-2-methyl-6-(1-(piperidin-4-yl)-1H-pyrazol-4-yl)-1,2,3,4-tetrahydroquinolin-5-yloxy)benzonitrile] were, in that order, 100 to 1000 nM and below 500 nM.
The like results for `CC(=O)N1c2ccc(-c3cnn(C4CCNCC4)c3)c(Oc3ccccn3)c2CC[C@@H]1C` [I-203, (S)-1-(2-methyl-6-(1-(piperidin-4-yl)-1H-pyrazol-4-yl)-5-(pyridin-2-yloxy)-3,4-dihydroquinolin-1(2H)-yl)ethanone] were, in that order, 100 to 1000 nM and below 500 nM.
Take `C[C@H]1CCc2c(Oc3ccccc3)c(-c3cnn(C4CCNCC4)c3)cc(F)c2N1C(=O)C1CC1` [I-204, (S)-cyclopropyl(8-fluoro-2-methyl-5-phenoxy-6-(1-(piperidin-4-yl)-1H-pyrazol-4-yl)-3,4-dihydroquinolin-1 (2H)-yl)methanone]: the IC50 in experiment [1] is 100 to 1000 nM; in experiment [2], below 500 nM.
On the same counts, the results for `COC(=O)N1c2c(F)cc(-c3cnn(C4CCNCC4)c3)c(Oc3ccccc3)c2CC[C@@H]1C` [I-205, (S)-methyl 8-fluoro-2-methyl-5-phenoxy-6-(1-(piperidin-4-yl)-1H-pyrazol-4-yl)-3,4-dihydroquinoline-1(2H)-carboxylate] are 100 to 1000 nM and below 500 nM.
In the case of `CC(=O)N1c2c(F)cc(-c3cnn(C4CCNCC4)c3)c(Oc3ccccc3)c2CC[C@@H]1C` [I-206, (S)-1-(8-fluoro-2-methyl-5-phenoxy-6-(1-(piperidin-4-yl)-1H-pyrazol-4-yl)-3,4-dihydroquinolin-1 (2H)-yl)ethanone], the IC50 in experiment [1] was 100 to 1000 nM; in experiment [2], below 500 nM.
The like results for `COc1cccc(Oc2c(-c3cnn(C4CCNCC4)c3)cc(F)c3c2CC[C@H](C)N3C(=O)C2CC2)c1` [I-207, (S)-cyclopropyl(8-fluoro-5-(3-methoxyphenoxy)-2-methyl-6-(1-(piperidin-4-yl)-1H-pyrazol-4-yl)-3,4-dihydroquinolin-1(2H)-yl)methanone] were, in that order, 100 to 1000 nM and below 500 nM.

The values above are taken from patent US10611750B2, “Tetrahydroquinoline compositions as bet bromodomain inhibitors” (FORMA Therapeutics, Inc., priority 2013, dated 2020).
